From patent US20130045491A1, “METHODS FOR ACTIVATING T CELLS” (priority 2011, published 2013) come the findings set out here.

One data set relates to CCR6^+ TM cells. Briefly: Effect of PI-3K/Akt inhibitors on cytokine production of IL-7-cultured CCR6+ memory T cells. Type of data set: cell-based, human. The settings on record: one week in IL-7, then inhibitor for 48 hours, restimulation. The method, then: (§1) Peripheral Blood Mononuclear Cells (PBMCs) from healthy individuals (New York Blood Center, New York, N.Y.) were prepared using Ficoll-paque plus (GE Amersham, Uppsala, Sweden). Whole blood samples from rheumatoid arthritis patients were purchased from Bioreclamation (New York, N.Y.) and were processed similar to healthy donor blood. All healthy donor and patient samples were consented prior to purchase, were none-identifiable and approved by institutional human subjects board. CD4^+ T cells were isolated using Dynal CD4 Positive Isolation Kit (Invitrogen, Carlsbad, Calif.) directly from purified PBMCs and were >99% pure. CD4^+ T cells were sorted by FACS ARIA cell sorter (BD, San Jose, Calif.) into CD45RO^+ CD25^− memory T (TM) cells. TM cells were activated either by anti-CD3 and anti-CD28 (aCD3/aCD28) coated beads (1:4 beads:cells ratio) for 18-24 hours, or by Phorbol 12-myristate 13-acetate (PMA) and ionomycin for 4 hours and further FACS sorted based on CCR6 and IL-17 expression into CCR6^−IL-17^−, CCR6^+IL-17^+, or CCR6^+ IL-17^− subsets (as determined by secretion assay labeling, see below). Sorted cells (>99% pure) were cultured in serum-free Xvivo-15 medium (Lonza, Wakersville, Md.) at 37° C. and 5% CO2 for 6-7 days prior to restimulation with PMA and ionomycin (see below). […] To determine the fold expansion, CCR6^+IL-17^+ or CCR6^+IL-17^− subsets were labeled with CFSE (Molecular Probes, Eugene, Oreg.) or eFluor 670 (eBioscience, San Diego, Calif.), respectively, as previously described (Oswald-Richter, et al., PLoS Biol 2004; 2: E198). […] In the experiments using PI-3K signaling inhibitors, cells were treated with PI-3K specific inhibitor, LY294002 (EMD, Gibbstown, N.J.), or Akt specific inhibitor, AKTi-1/2 (EMD), for 2 days before PMA and Ionomycin restimulation.

The subject of another data set is Akt. Briefly: Cytokine-dependent Akt phosphorylation in memory T cells treated with inhibitors. The format is cell-based, human. The settings on record: 1-10 μg/mL inhibitor, 48 hours. The method, then: (§2) Peripheral Blood Mononuclear Cells (PBMCs) from healthy individuals (New York Blood Center, New York, N.Y.) were prepared using Ficoll-paque plus (GE Amersham, Uppsala, Sweden). Whole blood samples from rheumatoid arthritis patients were purchased from Bioreclamation (New York, N.Y.) and were processed similar to healthy donor blood. All healthy donor and patient samples were consented prior to purchase, were none-identifiable and approved by institutional human subjects board. CD4^+ T cells were isolated using Dynal CD4 Positive Isolation Kit (Invitrogen, Carlsbad, Calif.) directly from purified PBMCs and were >99% pure. CD4^+ T cells were sorted by FACS ARIA cell sorter (BD, San Jose, Calif.) into CD45RO^+ CD25^− memory T (TM) cells. TM cells were activated either by anti-CD3 and anti-CD28 (aCD3/aCD28) coated beads (1:4 beads:cells ratio) for 18-24 hours, or by Phorbol 12-myristate 13-acetate (PMA) and ionomycin for 4 hours and further FACS sorted based on CCR6 and IL-17 expression into CCR6^−IL-17^−, CCR6^+IL-17^+, or CCR6^+ IL-17^− subsets (as determined by secretion assay labeling, see below). Sorted cells (>99% pure) were cultured in serum-free Xvivo-15 medium (Lonza, Wakersville, Md.) at 37° C. and 5% CO2 for 6-7 days prior to restimulation with PMA and ionomycin (see below). […]

The subject of a further data set is TM cells. Briefly: Cell viability of memory T cells treated with inhibitors. The following applies: 1-10 μg/mL inhibitor, 48 hours.
In data set [1] the test system is resting CCR6^+CD45RO^+CD25^− TM cells. Briefly: Cytokine expression in resting CCR6+ memory T cells stimulated with cytokines without TCR stimulation. Type of data set: cell-based, human. As for the experimental part: as §1, with “[…] […]” for “TM cells were activated either by anti-CD3 and anti-CD28 (aCD3/aCD28) coated beads (1:4 beads:cells ratio) for 18-24 hours, or by Phorbol 12-myristate 13-acetate (PMA) and ionomycin for 4 hours and further FACS sorted based on CCR6 and IL-17 expression into CCR6^−IL-17^−, CCR6^+IL-17^+, or CCR6^+ IL-17^− subsets (as determined by secretion assay labeling, see below). Sorted cells (>99% pure) were cultured in serum-free Xvivo-15 medium (Lonza, Wakersville, Md.) at 37° C. and 5% CO2 for 6-7 days prior to restimulation with PMA and ionomycin (see below).”

Another data set deals with RORC. Briefly: RORC / Foxp3 mRNA expression by quantitative PCR. The format is cell-based, human. The following applies: unpublished data. An excerpt: Purified T cells (1×10^5) were snap frozen in liquid nitrogen for total RNA isolation. Total RNA was isolated using RNeasy isolation kit (Qiagen, Valencia, Calif.) according to the manufacturer's protocol. The extracted RNA was then reverse transcribed into cDNA and quantified using Taqman Cell to CT kit (Applied Biosystems, Carlsbad, Calif.). Taqman primers and probe sets were purchased from Applied Biosystems: Human KLF2 (Hs00360439_g1), RORC (Hs01076120_g1), Il-17a (Hs00174383_m1), b-Actin (Hs03023880_g1), Foxp3 (Hs00203958_m1). Data was acquired and analyzed on ABI 7500 sequence detection system. Quantitative real-time PCR data was analyzed by normalizing Ct values of genes of interest to the Ct values of the housekeeping gene b-Actin.

Data set [2] relates to CCR6^− TM cells. Put plainly: Cytokine expression in resting CCR6- memory T cells stimulated with IL-7. The format is cell-based, human. As for the experimental part: as §2
The test system of a further data set is CCR6^+IL-17^− TM cells. Briefly: IL-17 induction in activated, FACS-sorted CCR6+IL-17- memory T cells cultured with cytokines, intracellular staining after PMA/ionomycin. The format is cell-based, human. The settings on record: for IL-17 expression in CCR6+IL-17- T cells: cultured 6 days in the cytokine, compared with IL-2, FIG. 1e. As for the experimental part:
as §1
Manufacturer's protocols (Miltenyi Biotec) for labeling human and mouse IL-17 secreting cells were followed. Briefly, activated T-cells were washed in cold buffer (PBS+0.5% BSA+2 mM EDTA) and labeled with IL-17 catch reagent for 5 minutes on ice. Pre-warmed medium was then added and the cells were incubated at 37° C. on a shaker for 45 minutes. For human IL-17 capture experiments, cells were washed once more with cold buffer and PE-conjugated IL-17 detection antibodies were added and incubated on ice for 10 minutes. For mouse IL-17 capture experiments, all steps were identical, except that the IL-17 detection antibody used was biotinylated, and a secondary staining step using APC-conjugated streptavidin was used. Cells were then washed and stained with additional cell surface antibodies at room temperature for 20 minutes. These cells were then washed once more with cold buffer, resuspended in serum-free RPMI 1640 medium, filtered and FACS sorted. […]

For data set [3], the system named is CCR6^− TM cells. Briefly: IL-17 induction in sorted CCR6-IL-17- memory T cells cultured with cytokines. The format is cell-based, human. The following applies: cultured 6 days in the cytokine, restimulation. The method, then:
as §2

For the molecule `O=c1[nH]c2ccccc2n1C1CCN(Cc2ccc(-c3nc4cc5nc[nH]c5cc4nc3-c3ccccc3)cc2)CC1` [AKTi-1/2], in the data set on CCR6^+ TM cells, the “expression of IFNγ” value is on record as “not affected”, the “expression of IL-4” value was “less reduced” and the “γc-mediated IL-17/IL-22 induction” value was “repressed γc-mediated IL-17/IL-22 induction in a dose-dependent manner”. In the data set with Akt, the “cytokine-dependent phosphorylation of Akt” value is recorded as “downregulated cytokine-dependent phosphorylation of Akt”. The cell viability entry with TM cells is given as “without adversely affecting cell viability”.
Take IL-4: another γc-cytokine: the “IL-17/IL-22 (Th17 cytokine) expression in resting CCR6+ TM cells” value in data set [1] (no TCR stimulation, unpublished data) was “did not promote Th17 cytokine production”. The TM cell survival entry in data set [1] (resting TM cells, unpublished data) is “did not promote Th17 cytokine production in resting CCR6^+ TM cells or confer TM cell survival”.
For the molecule “IL-7: γc-cytokine from R&D Systems, used at 20 ng/mL”, in data set [1] (10 days, no TCR stimulation), the “enhancement of IL-17 expression compared to the same cells ex vivo (day 0)” value is “more than 3 fold” and the “enhancement of IL-22 expression compared to the same cells ex vivo (day 0)” value is on record as “more than 3 fold”. Also, in data set [1] (IL-7 stimulation), the “increase of cells co-expressing IL-22 or IFNγ with IL-17” value is on record as “more than 5 fold”. The IFNγ production entry in data set [1] (resting CCR6+ or CCR6- TM cells cultured with IL-7) was “almost no impact”. In the data set with RORC, the “RORC mRNA expression levels” value is “neither IL-7 stimulation, nor treatment with PI-3K or Akt inhibitors, nor overexpression of FOXO1 or KLF2 affected RORC mRNA expression levels”. Besides, in the data set with CCR6^− TM cells [2], the “IL-17 or IL-22 expression in CCR6- TM cells” value is recorded as “failed to express IL-17 or IL-22”. Also, in the data set on CCR6^+IL-17^− TM cells, the “IL-17 expression in CCR6+IL-17- T cells” value is “induced similar levels of IL-17 expression”. The “IL-17 expression in CCR6- TM cells” value with CCR6^− TM cells [3] is on record as “neither IL-7 nor IL-15 induced IL-17 expression”.
On to “IL-15: γc-cytokine from R&D Systems, used at 20 ng/mL”, for which the “IL-17 expression in CCR6+IL-17- T cells” value in the data set with CCR6^+IL-17^− TM cells is listed as “induced similar levels of IL-17 expression”. Moreover, the “IL-17 expression in CCR6- TM cells” value in the data set with CCR6^− TM cells [3] was “neither IL-7 nor IL-15 induced IL-17 expression”.
As to “IL-23: cytokine from R&D Systems, used at 20 ng/mL; known to enhance Th17 cell differentiation”, the “further induction of IL-17 or IL-22 expression in combination with IL-7” value in data set [1] (resting CCR6+ TM cells) is listed as “did not significantly synergize with IL-7”. Also, the “induction of IL-17/IL-22 expression from CCR6+ human TM cells” value in the data set on CCR6^+IL-17^− TM cells (IL-23 in place of γc cytokines, unpublished data) is listed as “not able to compensate for γc cytokines”. Moreover, the “IL-17 expression in CCR6+IL-17- T cells” value in the data set on CCR6^+IL-17^− TM cells is given as “did not influence IL-17 expression”.
